Measured values taken from ChEMBL document CHEMBL2177009, “The use of novel C-methylated spermidine derivatives to investigate the regulation of polyamine metabolism” (J Med Chem, 2011).
The source made the active and inactive calls. The rule behind the calls is not given here.

Legend:
[1] = biological target: Spermine oxidase (Homo sapiens) (UniProt Q9NWM0); assay: Activity of spermine oxidase in human DU145 cells assessed per ug DNA at 100 uM after 48 hrs in presence of serum amine oxidase inhibitor aminoguanidine (RVb = 680 +/- 29 pmol/h per ug DNA); assay type: cell-based; details: DU-145
[2] = biological target: Spermine oxidase (Homo sapiens) (UniProt Q9NWM0); assay: Activity of spermine oxidase in human DU145 cells assessed per ug DNA at 100 uM after 24 hrs in presence of serum amine oxidase inhibitor aminoguanidine (RVb = 493 +/- 22 pmol/h per ug DNA); assay type: cell-based; details: DU-145
[3] = biological target: T1, Ornithine decarboxylase (Homo sapiens) (UniProt P11926); assay: Activity of ornithine decarboxylase in human DU145 cells assessed per ug DNA at 100 uM after 48 hrs in presence of serum amine oxidase inhibitor aminoguanidine (RVb = 17.7+/- 2.6 pmol/h per ug DNA); assay type: cell-based; details: DU-145
T1 sequence (whole entry): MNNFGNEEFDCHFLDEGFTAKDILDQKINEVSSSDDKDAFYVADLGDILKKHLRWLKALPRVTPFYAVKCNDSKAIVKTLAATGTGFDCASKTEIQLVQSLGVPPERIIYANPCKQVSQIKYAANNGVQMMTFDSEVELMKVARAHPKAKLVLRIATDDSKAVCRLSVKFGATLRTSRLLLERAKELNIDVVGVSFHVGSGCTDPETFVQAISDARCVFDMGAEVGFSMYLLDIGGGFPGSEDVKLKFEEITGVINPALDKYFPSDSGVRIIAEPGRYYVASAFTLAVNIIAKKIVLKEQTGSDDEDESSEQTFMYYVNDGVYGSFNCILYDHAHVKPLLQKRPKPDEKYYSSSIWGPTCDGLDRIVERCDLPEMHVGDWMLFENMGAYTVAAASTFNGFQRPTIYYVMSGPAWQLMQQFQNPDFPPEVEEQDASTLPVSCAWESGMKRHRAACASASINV

[4] = biological target: Peroxisomal N(1)-acetyl-spermine/spermidine oxidase (Homo sapiens) (UniProt Q6QHF9); assay: Activity of APAO in human DU145 cells assessed per ug DNA at 100 uM after 48 hrs in presence of serum amine oxidase inhibitor aminoguanidine (RVb = 699 +/- 21 pmol/h per ug DNA); assay type: cell-based; details: DU-145
[5] = biological target: Peroxisomal N(1)-acetyl-spermine/spermidine oxidase (Homo sapiens) (UniProt Q6QHF9); assay: Activity of APAO in human DU145 cells assessed per ug DNA at 100 uM after 72 hrs in presence of serum amine oxidase inhibitor aminoguanidine (RVb = 662 +/- 48 pmol/h per ug DNA); assay type: cell-based; details: DU-145
DU-145 = assay: Displacement of [14C]-spermidine from polyamine transporter in human DU145 cells at 1 to 100 uM after 10 mins; assay type: cell-based
[6] = biological target: Peroxisomal N(1)-acetyl-spermine/spermidine oxidase (Homo sapiens) (UniProt Q6QHF9); assay: Activity of APAO in human DU145 cells assessed per ug DNA at 100 uM after 24 hrs in presence of serum amine oxidase inhibitor aminoguanidine (RVb = 540 +/- 61 pmol/h per ug DNA); assay type: cell-based; details: DU-145
[7] = biological target: Spermine oxidase (Homo sapiens) (UniProt Q9NWM0); assay: Activity of spermine oxidase in human DU145 cells assessed per ug DNA at 100 uM after 72 hrs in presence of serum amine oxidase inhibitor aminoguanidine (RVb = 742 +/- 10 pmol/h per ug DNA); assay type: cell-based; details: DU-145
[8] = biological target: T2, S-adenosylmethionine decarboxylase proenzyme (Homo sapiens) (UniProt P17707); assay: Activity of S-adenosyl-L-methionine decarboxylase in human DU145 cells assessed per ug DNA at 100 uM after 72 hrs in presence of serum amine oxidase inhibitor aminoguanidine (RVb = 72 +/- 6 pmol/h per ug DNA); assay type: cell-based; details: DU-145
T2 sequence (whole entry): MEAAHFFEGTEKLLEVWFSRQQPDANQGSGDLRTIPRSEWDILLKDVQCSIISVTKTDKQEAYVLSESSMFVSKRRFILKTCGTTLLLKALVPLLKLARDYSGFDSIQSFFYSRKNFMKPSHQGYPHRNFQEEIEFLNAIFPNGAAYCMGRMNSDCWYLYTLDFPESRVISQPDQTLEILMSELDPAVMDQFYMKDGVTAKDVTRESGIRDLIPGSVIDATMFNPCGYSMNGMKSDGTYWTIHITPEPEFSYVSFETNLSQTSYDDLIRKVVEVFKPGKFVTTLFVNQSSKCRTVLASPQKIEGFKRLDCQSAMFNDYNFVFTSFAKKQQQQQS

[9] = biological target: Diamine acetyltransferase 1 (Homo sapiens) (UniProt P21673); assay: Activity of SSAT in human DU145 cells assessed per ug DNA at 100 uM after 48 hrs in presence of serum amine oxidase inhibitor aminoguanidine (RVb = 58 pmol/h per ug DNA); assay type: cell-based; details: DU-145
Nucleic Acid = assay: Induction of SSAT alternative splicing in mouse primary fetal fibroblasts assessed as SSAT-X mRNA at 100 uM by qRT-PCR in presence of CHX relative to total SSAT mRNA
[10] = biological target: T1, Ornithine decarboxylase (Homo sapiens); assay: Activity of ornithine decarboxylase in human DU145 cells assessed per ug DNA at 100 uM after 24 hrs in presence of serum amine oxidase inhibitor aminoguanidine (RVb = 29.3 +/- 1.4 pmol/h per ug DNA); assay type: cell-based; details: DU-145
[11] = biological target: T1, Ornithine decarboxylase (Homo sapiens); assay: Activity of ornithine decarboxylase in human DU145 cells assessed per ug DNA at 100 uM after 72 hrs in presence of serum amine oxidase inhibitor aminoguanidine (RVb = 7.5+/- 0.9 pmol/h per ug DNA); assay type: cell-based; details: DU-145
[12] = biological target: T2, S-adenosylmethionine decarboxylase proenzyme (Homo sapiens); assay: Activity of S-adenosyl-L-methionine decarboxylase in human DU145 cells assessed per ug DNA at 100 uM after 48 hrs in presence of serum amine oxidase inhibitor aminoguanidine (RVb = 73 +/- 1 pmol/h per ug DNA); assay type: cell-based; details: DU-145
[13] = biological target: Diamine acetyltransferase 1 (Homo sapiens) (UniProt P21673); assay: Activity of SSAT in human DU145 cells assessed per ug DNA at 100 uM after 24 hrs in presence of serum amine oxidase inhibitor aminoguanidine (RVb = 59 +/- 1 pmol/h per ug DNA); assay type: cell-based; details: DU-145
[14] = biological target: T2, S-adenosylmethionine decarboxylase proenzyme (Homo sapiens); assay: Activity of S-adenosyl-L-methionine decarboxylase in human DU145 cells assessed per ug DNA at 100 uM after 24 hrs in presence of serum amine oxidase inhibitor aminoguanidine (RVb = 61 +/- 5 pmol/h per ug DNA); assay type: cell-based; details: DU-145
[15] = biological target: Diamine acetyltransferase 1 (Homo sapiens) (UniProt P21673); assay: Activity of SSAT in human DU145 cells assessed per ug DNA at 100 uM after 72 hrs in presence of serum amine oxidase inhibitor aminoguanidine (RVb = 62 +/- 4 pmol/h per ug DNA); assay type: cell-based; details: DU-145

Chain of Spermine oxidase (Homo sapiens) (Q9NWM0 whole entry): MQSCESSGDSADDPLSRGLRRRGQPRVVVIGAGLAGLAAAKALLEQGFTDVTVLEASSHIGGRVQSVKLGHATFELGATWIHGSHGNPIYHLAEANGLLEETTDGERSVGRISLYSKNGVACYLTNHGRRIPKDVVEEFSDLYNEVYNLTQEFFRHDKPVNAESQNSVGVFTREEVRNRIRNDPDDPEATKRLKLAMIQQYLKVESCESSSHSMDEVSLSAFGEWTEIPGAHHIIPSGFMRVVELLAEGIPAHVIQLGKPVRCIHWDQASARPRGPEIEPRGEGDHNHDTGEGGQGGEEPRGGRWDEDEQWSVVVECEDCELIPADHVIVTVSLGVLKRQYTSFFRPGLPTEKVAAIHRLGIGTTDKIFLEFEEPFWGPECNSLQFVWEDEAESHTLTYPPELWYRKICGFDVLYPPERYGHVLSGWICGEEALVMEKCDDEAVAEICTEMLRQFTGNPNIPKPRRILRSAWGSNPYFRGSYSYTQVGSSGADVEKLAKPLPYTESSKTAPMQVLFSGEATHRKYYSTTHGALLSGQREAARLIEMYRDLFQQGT
Chain of Diamine acetyltransferase 1 (Homo sapiens) (P21673 whole entry): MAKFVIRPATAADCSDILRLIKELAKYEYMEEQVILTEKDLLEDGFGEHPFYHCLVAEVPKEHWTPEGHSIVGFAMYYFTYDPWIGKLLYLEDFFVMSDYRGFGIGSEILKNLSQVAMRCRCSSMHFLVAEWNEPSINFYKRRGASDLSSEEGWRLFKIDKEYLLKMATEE
Chain of Peroxisomal N(1)-acetyl-spermine/spermidine oxidase (Homo sapiens) (Q6QHF9 whole entry): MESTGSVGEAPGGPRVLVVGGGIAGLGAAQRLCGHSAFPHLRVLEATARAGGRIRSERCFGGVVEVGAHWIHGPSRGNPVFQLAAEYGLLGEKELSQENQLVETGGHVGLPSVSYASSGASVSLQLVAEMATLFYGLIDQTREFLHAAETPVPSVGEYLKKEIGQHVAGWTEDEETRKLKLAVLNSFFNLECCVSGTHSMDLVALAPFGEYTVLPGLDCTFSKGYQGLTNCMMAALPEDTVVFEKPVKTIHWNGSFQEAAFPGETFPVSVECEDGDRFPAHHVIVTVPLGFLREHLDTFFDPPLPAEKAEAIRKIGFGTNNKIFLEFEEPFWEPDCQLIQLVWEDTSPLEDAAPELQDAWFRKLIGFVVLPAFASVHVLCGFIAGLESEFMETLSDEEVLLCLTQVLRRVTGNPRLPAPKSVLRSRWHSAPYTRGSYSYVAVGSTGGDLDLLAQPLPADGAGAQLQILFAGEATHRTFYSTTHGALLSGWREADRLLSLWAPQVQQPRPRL

SMILES | Activity [1] | Activity [2] | Activity [3] | Activity [4] | Activity [5] | Activity (DU-145) | Activity [6] | Activity [7] | Activity [8] | Activity [9] | Activity (Nucleic Acid) | Activity [10] | Activity [11] | Activity [12] | Activity [13] | Activity [14] | Activity [15]
CC(N)CCCNCCCN (stereo not given) | 738 pmol/h | 515 pmol/h | 5.5 pmol/h | 770 pmol/h | 737 pmol/h | Active | 562 pmol/h | 832 pmol/h | 63 pmol/h | 62 pmol/h | Active | 4.7 pmol/h | 3.8 pmol/h | 67 pmol/h | 65 pmol/h | 53 pmol/h | 61 pmol/h
CCNCCCNCCCNCCCNCC |  |  |  |  |  |  |  |  |  |  | Active |  |  |  |  |  | 
NCCCCNCCCN |  |  |  |  |  | Active |  |  |  |  |  |  |  |  |  |  | 
C[C@H](N)CCNCCCCN | 695 pmol/h | 362 pmol/h | 4.4 pmol/h | 779 pmol/h | 745 pmol/h | Active | 545 pmol/h | 754 pmol/h | 75 pmol/h | 61 pmol/h | Active | 4.3 pmol/h | 3.5 pmol/h | 72 pmol/h | 67 pmol/h | 64 pmol/h | 66 pmol/h
CC(CN)CNCCCCN (stereo not given) | 655 pmol/h | 394 pmol/h | 16.6 pmol/h | 719 pmol/h | 732 pmol/h | Active | 562 pmol/h | 608 pmol/h | 79 pmol/h | 59 pmol/h | Active | 21.7 pmol/h | 9.1 pmol/h | 71 pmol/h | 56 pmol/h | 67 pmol/h | 61 pmol/h
CC(CCN)NCCCCN (stereo not given) | 474 pmol/h | 204 pmol/h | 9.3 pmol/h | 693 pmol/h | 775 pmol/h | Active | 528 pmol/h | 571 pmol/h | 58 pmol/h | 59 pmol/h | Active | 8.8 pmol/h | 5.4 pmol/h | 60 pmol/h | 62 pmol/h | 53 pmol/h | 69 pmol/h
